Consider five compounds from the NIST ThermoML archive (doi:10.1016/j.jct.2004.11.012).

Each structure is given as a SMILES string. ± gives the expanded uncertainty stated by the source.

The conditions of the data set: 101.33 kPa, Liquid.

As to `COC(C)(C)C` [2-methoxy-2-methylpropane], the mass density runs as follows: (298.15 K) 735.356 ± 0.27 kg/m3; (308.15 K) 724.85 ± 0.28 kg/m3.

For the compound `C=C(C)C(=O)O` [2-methyl-2-propenoic acid], the mass density is 1009.13 ± 0.13 kg/m3 (298.15 K) and 998.64 ± 0.13 kg/m3 (308.15 K).

On to `C=CCOC(=O)C(=C)C` [2-propenyl 2-methylpropenoate], for which the mass density is reported as 927.997 ± 0.17 kg/m3 (298.15 K) and 917.423 ± 0.18 kg/m3 (308.15 K).

For `C=C(C)C(=O)OCCCC` [butyl 2-methyl-2-propenoate], the mass density (298.15 K) was 890.438 ± 0.28 kg/m3 and the mass density (308.15 K) is 880.857 ± 0.28 kg/m3.

With `C=COC(C)=O` [vinyl acetate], the mass density by setting is: (298.15 K) 925.775 ± 0.16 kg/m3; (308.15 K) 913.134 ± 0.16 kg/m3.
